The text below walks through data of US20240174637A1, “DEGRADERS OF GRK2 AND USES THEREOF” (Sonata Therapeutics, Inc., priority 2021, published 2024).

pIC50: −log10 of the molar value. Structures can show the parent of a compound that is named as a salt. A value given as a limit tells only on which side of the number the result lay.

Test [1] concerns the target T1, GRK2 (Homo sapiens, UniProt P25098).
T1 sequence (P25098 1-689): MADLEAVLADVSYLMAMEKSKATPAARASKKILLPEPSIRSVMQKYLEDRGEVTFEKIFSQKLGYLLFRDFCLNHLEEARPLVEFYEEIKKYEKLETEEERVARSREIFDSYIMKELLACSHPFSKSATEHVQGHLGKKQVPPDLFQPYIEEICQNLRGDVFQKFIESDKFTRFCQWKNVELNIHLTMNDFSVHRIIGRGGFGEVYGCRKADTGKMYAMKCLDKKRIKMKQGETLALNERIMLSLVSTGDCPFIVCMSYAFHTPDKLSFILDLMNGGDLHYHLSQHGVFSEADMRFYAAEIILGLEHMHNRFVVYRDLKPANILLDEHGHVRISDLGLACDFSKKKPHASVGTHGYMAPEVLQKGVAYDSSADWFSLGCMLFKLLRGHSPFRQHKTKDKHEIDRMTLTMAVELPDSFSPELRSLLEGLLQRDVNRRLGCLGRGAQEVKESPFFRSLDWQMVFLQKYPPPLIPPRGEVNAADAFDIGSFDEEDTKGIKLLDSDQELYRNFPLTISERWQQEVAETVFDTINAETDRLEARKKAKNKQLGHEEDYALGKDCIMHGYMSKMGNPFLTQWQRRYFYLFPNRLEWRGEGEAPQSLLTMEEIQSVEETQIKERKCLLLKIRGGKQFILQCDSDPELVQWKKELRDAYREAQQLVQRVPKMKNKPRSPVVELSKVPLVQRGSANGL
The test can be described thus: GRK2 Inhibition Assay (TR-FRET, Example 1). It counts as biochemical. The following applies: Table 4; Example 1 assay; read-out: Enzymatic GRK2 IC50: Av IC50 GRK2. A digest of the protocol:
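GRK2 (1 nM) pre-incubated 30 min RT with compounds in HEPES/MgCl2/DTT/Tween-20/EGTA buffer, then reacted 90 min RT with 7 μM ATP and 50 nM ULight-TopoIIα substrate. Stopped with EDTA plus Eu anti-TopoIIα antibody; TR-FRET read after 60 min.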

Another test concerns PAXF1657 EV. Nature of the test: 7-day cellular proliferation assay (CellTiter-Glo), PAXF1657 EV. Type of test: cell-based. The conditions noted are these: proliferation, read-out: GeoMean IC50 (UM) PAXF1657 EV. A digest of the protocol:
(§1)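 Seven-day growth in PAXF1657 lines engineered for GRK2 overexpression or knockout, measured by CellTiter-Glo; compounds tested at 30 μM-0.0002 μM final and replenished once at day 3.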

The next test has as its system PAXF1657 KO Clone #4. Nature of the test: 7-day cellular proliferation assay (CellTiter-Glo), PAXF1657 KO Clone #4. The following applies: proliferation, read-out: GeoMean IC50 (uM) PAXF1657 KO Clone #4. It counts as cell-based. A digest of the protocol:
as §1

In test [2] the target is T1, GRK2. The test can be described thus: GRK2 Degradation Assay and Western Blot in PAXF1657 cells. Type of test: cell-based. Also on record: endogenous in cells; host or cells: PAXF1657. The following applies: for inhibition at 0.3 µM: Conc 0.3 uM; for inhibition at 0.3 µM / inhibition at 1 µM / inhibition at 3 µM: read-out: Degradation Assay - 3 point: Degradation (%); for inhibition at 1 µM: Conc 1 uM; for inhibition at 3 µM: Conc 3 uM; for DC50: PAXF1657, 24 h, read-out: Degradation Assay - Full Dose Response: IC50 (uM) [cell line: PAXF1657, time point: 24 h]. Put shortly:
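PAXF1657 cells grown to 70% confluency, then treated with compounds at 0–10 μM for 6 to 24 h at 37 °C. Lysates in PBS with 1% NP40 run on SDS-PAGE. GRK2 protein detected by western blot with β-actin as loading reference, using ECL chemiluminescence.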

With `C[C@@H](NC(=O)c1cccc(NCc2nnc(-c3ccncn3)n2C)c1)c1cccc(C(=O)N2CCC(CCCN3CCN(c4ccc5c(c4)CN(C4CCC(=O)NC4=O)C5=O)CC3)CC2)c1` (stereo partly drawn) [Compound D119, N-((1R)-1-(3-(4-(3-(4-(2-(2,6-dioxopiperidin-3-yl)-1-oxoisoindolin-5-yl)piperazin-1-yl)propyl)piperidine-1-carbonyl)phenyl)ethyl)-3-((4-methyl-5-(pyrimidin-4-yl)-4H-1,2,4-triazol-3-yl)methylamino)benzamide hydrochloride], the pIC50 at GRK2 [1] is 7.79. Further, the negative logarithm of the IC50 (pIC50) with PAXF1657 EV was 6.94. Also, the IC50 in the test with PAXF1657 KO Clone #4 is 2.73 µM. Also, on GRK2 [2], the inhibition at 0.3 µM was 90%, the inhibition at 1 µM amounted to 93.7% and the inhibition at 3 µM worked out at 89%.

Regarding `C[C@@H](NC(=O)c1cccc(NCc2nnc(-c3ccncn3)n2C)c1)c1cccc(C(=O)N2CCC(CCN3CCN(c4ccc5c(c4)CN(C4CCC(=O)NC4=O)C5=O)CC3)CC2)c1` (stereo partly drawn) [Compound D120], at GRK2 [1], the pIC50 is 8.02. In addition, the pIC50 in the test on PAXF1657 EV was 7.40. Besides, in the test on PAXF1657 KO Clone #4, the concentration for half-maximal inhibition (IC50) was above 30 µM. For the same molecule, on GRK2 [2], the inhibition at 0.3 µM came out at 90.8%, the inhibition at 1 µM was determined as 94.8% and the inhibition at 3 µM came out at 89.6%.

As to `C[C@@H](NC(=O)c1cccc(NCc2nnc(-c3ccncn3)n2C)c1)c1cccc(C(=O)N2CC(CN3CCN(c4ccc5c(c4)CN(C4CCC(=O)NC4=O)C5=O)CC3)C2)c1` (stereo partly drawn) [Compound D121, N-((1R)-1-(3-(3-((4-(2-(2,6-dioxopiperidin-3-yl)-1-oxoisoindolin-5-yl)piperazin-1-yl)methyl)azetidine-1-carbonyl)phenyl)ethyl)-3-((4-methyl-5-(pyrimidin-4-yl)-4H-1,2,4-triazol-3-yl)methylamino)benzamide hydrochloride], the pIC50 at GRK2 [1] is 7.35. In addition, in the test on PAXF1657 EV, the pIC50 is 4.94. Further, in the test with PAXF1657 KO Clone #4, the IC50 is above 30 µM. For the same molecule, on GRK2 [2], the inhibition at 0.3 µM turned out to be 7.97%, the inhibition at 1 µM was found to be 24% and the inhibition at 3 µM was 53.8%.

For the molecule `C[C@@H](NC(=O)c1cccc(NCc2nnc(-c3ccncn3)n2C)c1)c1cccc(C(=O)N2CCC(CN3CCN(c4ccc5c(c4)CN(C4CCC(=O)NC4=O)C5=O)CC3)CC2)c1` (stereo partly drawn) [Compound D122, N-((1R)-1-(3-(4-((4-(2-(2,6-dioxopiperidin-3-yl)-1-oxoisoindolin-5-yl)piperazin-1-yl)methyl)piperidine-1-carbonyl)phenyl)ethyl)-3-((4-methyl-5-(pyrimidin-4-yl)-4H-1,2,4-triazol-3-yl)methylamino)benzamide hydrochloride], the negative-log IC50 (pIC50) at GRK2 [1] is 7.91. In addition, the negative logarithm of the IC50 (pIC50) in the test with PAXF1657 EV is 7.00. Besides, the half-inhibitory concentration (IC50) with PAXF1657 KO Clone #4 is above 30 µM. In addition, at GRK2 [2], the inhibition at 0.3 µM is 84.9%, the inhibition at 1 µM was found to be 90.6% and the inhibition at 3 µM was found to be 92.5%.

As to `C[C@@H](NC(=O)c1cccc(NCc2nnc(-c3ccncn3)n2C)c1)c1cccc(OCCCN2CCN(c3ccc4c(c3)CN(C3CCC(=O)NC3=O)C4=O)CC2)c1` (stereo partly drawn) [Compound D123, N-((1R)-1-(3-(3-(4-(2-(2,6-dioxopiperidin-3-yl)-1-oxoisoindolin-5-yl)piperazin-1-yl)propoxy)phenyl)ethyl)-3-((4-methyl-5-(pyrimidin-4-yl)-4H-1,2,4-triazol-3-yl)methylamino)benzamide hydrochloride], at GRK2 [1], the pIC50 is 8.18. Further, the pIC50 with PAXF1657 EV was above 9.34. In the test on PAXF1657 KO Clone #4, the half-maximal inhibitory concentration (IC50) was above 30 µM. Also, on GRK2 [2], the inhibition at 0.3 µM turned out to be 81.6%, the inhibition at 1 µM was 85.2%, the inhibition at 3 µM was 84% and the DC50 came out at 0.03 µM.

In the case of `C[C@@H](NC(=O)c1cccc(NCc2nnc(-c3ccncn3)n2C)c1)c1ccc(OCCCCCCOCCOCCOCCCC(=O)N2CCN(c3ccc4c(c3)CN(C3CCC(=O)NC3=O)C4=O)CC2)cc1` (stereo partly drawn) [Compound D124, N-((1R)-1-(4-(6-(2-(2-(4-(4-(2-(2,6-dioxopiperidin-3-yl)-1-oxoisoindolin-5-yl)piperazin-1-yl)-4-oxobutoxy)ethoxy)ethoxy)hexyloxy)phenyl)ethyl)-3-((4-methyl-5-(pyrimidin-4-yl)-4H-1,2,4-triazol-3-yl)methylamino)benzamide], on GRK2 [1], the negative logarithm of the IC50 (pIC50) is 8.27. Besides, the pIC50 in the test on PAXF1657 EV was 7.05. In addition, the IC50 with PAXF1657 KO Clone #4 was above 30 µM. At GRK2 [2], the inhibition at 0.3 µM is 80.5%, the inhibition at 1 µM turned out to be 90.7%, the inhibition at 3 µM was 89.3% and the DC50 turned out to be 0.1 µM.

`C[C@@H](NC(=O)c1cccc(NCc2nnc(-c3ccncn3)n2C)c1)c1ccc(OCCCCCCOCCOCCOCCCC(=O)N2CCN(c3cc4c(cc3F)C(=O)N(C3CCC(=O)NC3=O)C4=O)CC2)cc1` (stereo partly drawn) [Compound D125, N-((1R)-1-(4-(6-(2-(2-(4-(4-(2-(2,6-dioxopiperidin-3-yl)-6-fluoro-1,3-dioxoisoindolin-5-yl)piperazin-1-yl)-4-oxobutoxy)ethoxy)ethoxy)hexyloxy)phenyl)ethyl)-3-((4-methyl-5-(pyrimidin-4-yl)-4H-1,2,4-triazol-3-yl)methylamino)benzamide]: on GRK2 [1], the pIC50 was 8.95. Also, the pIC50 in the test with PAXF1657 EV is 6.96. Besides, the concentration for half-maximal inhibition (IC50) in the test with PAXF1657 KO Clone #4 was determined as 26.6 µM. For the same molecule, at GRK2 [2], the inhibition at 0.3 µM was 71.9%, the inhibition at 1 µM came out at 82.5% and the inhibition at 3 µM was 76.4%.

On to `C[C@@H](NC(=O)c1cccc(NCc2nnc(-c3ccncn3)n2C)c1)c1cccc(OCCCCCCOCCN2CCN(c3ccc4c(c3)CN(C3CCC(=O)NC3=O)C4=O)CC2)c1` (stereo partly drawn) [Compound D126, N-((1R)-1-(3-(6-(2-(4-(2-(2,6-dioxopiperidin-3-yl)-1-oxoisoindolin-5-yl)piperazin-1-yl)ethoxy)hexyloxy)phenyl)ethyl)-3-((4-methyl-5-(pyrimidin-4-yl)-4H-1,2,4-triazol-3-yl)methylamino)benzamide], for which, on GRK2 [1], the negative logarithm of the IC50 (pIC50) was 8.34. The negative logarithm of the IC50 (pIC50) in the test with PAXF1657 EV was 6.89. Besides, the concentration for half-maximal inhibition (IC50) in the test with PAXF1657 KO Clone #4 is above 30 µM. On GRK2 [2], the inhibition at 0.3 µM is 93.2%, the inhibition at 1 µM came out at 94.1%, the inhibition at 3 µM worked out at 88% and the DC50 amounted to 0.04 µM.

Regarding `C[C@@H](NC(=O)c1cccc(NCc2nnc(-c3ccncn3)n2C)c1)c1ccc(OCCCCCCOCCOCCOCCCC(=O)Nc2cccc3c2CN(C2CCC(=O)NC2=O)C3=O)cc1` (stereo partly drawn) [Compound D127, N-((1R)-1-(4-(6-(2-(2-(4-(2-(2,6-dioxopiperidin-3-yl)-1-oxoisoindolin-4-ylamino)-4-oxobutoxy)ethoxy)ethoxy)hexyloxy)phenyl)ethyl)-3-((4-methyl-5-(pyrimidin-4-yl)-4H-1,2,4-triazol-3-yl)methylamino)benzamide], at GRK2 [1], the pIC50 is 8.66. The pIC50 in the test with PAXF1657 EV was 7.00. The half-maximal inhibitory concentration (IC50) with PAXF1657 KO Clone #4 was above 30 µM. At GRK2 [2], the inhibition at 0.3 µM is 81.4%, the inhibition at 1 µM is 82.1% and the inhibition at 3 µM stood at 78.5%.

As for `C[C@@H](NC(=O)c1cccc(NCc2nnc(-c3ccncn3)n2C)c1)c1cccc(OCCN2CCN(c3ccc4c(c3)CN(C3CCC(=O)NC3=O)C4=O)CC2)c1` (stereo partly drawn) [Compound D128, N-((1R)-1-(3-(2-(4-(2-(2,6-dioxopiperidin-3-yl)-1-oxoisoindolin-5-yl)piperazin-1-yl)ethoxy)phenyl)ethyl)-3-((4-methyl-5-(pyrimidin-4-yl)-4H-1,2,4-triazol-3-yl)methylamino)benzamide], at GRK2 [1], the pIC50 was 7.79. The pIC50 with PAXF1657 EV is 6.10. Besides, the concentration for half-maximal inhibition (IC50) in the test with PAXF1657 KO Clone #4 is above 30 µM. Besides, on GRK2 [2], the inhibition at 0.3 µM was -23.2%, the inhibition at 1 µM amounted to 8.53% and the inhibition at 3 µM was -38.6%.
